Test results reported in article PMC10779311, “Antileishmanial Activity, Toxicity and Mechanism of Action of Complexes of Sodium Usnate with Lanthanide Ions: Eu(III), Sm(III), Gd(III), Nd(III), La(III) and Tb(III)” (International Journal of Molecular Sciences, 2023).
Like-named read-outs stand apart in the source and are kept apart here.

Columns and labels:
[1] = test system: L. (L.) amazonensis intracellular amastigotes; test: In vitro antileishmanial activity on intracellular amastigotes in peritoneal macrophages; type: cell-based, Leishmania (Leishmania) amazonensis; conditions: for IC50: BALB/c peritoneal macrophages, 24 h, Giemsa count, read-out: L. amazonensis Intracellular Amastigotes (Ama.) IC50
Method: Peritoneal macrophages were obtained from BALB/c mice in RPMI 1640 culture medium (Sigma-Aldrich® São Paulo, Brazil). After exclusion of inviable cells with trypan blue staining (Sigma-Aldrich® São Paulo, Brazil), cells were transferred to 24-well plates with 13 mm round glass coverslips (10^6 cells/well) and kept at 37 °C/5% CO2. After adhesion for one hour, cells were infected with promastigote forms of L. (L.) amazonensis in the stationary phase (4 × 10^6 cells/well). After 4 h of incubation, samples (complexes 1–7) were added in six replicates (6.25–50.0 µg·mL^−1). […] Coverslips were removed after 24 h, subjected to a dehydration battery with increasing concentrations of acetone: xylol and stained with Giemsa (Sigma-Aldrich®, São Paulo, Brazil) diluted 1:10 in distilled water. After mounting on slides, 200 cells per coverslip were analyzed by light microscopy and the average number of amastigotes/cells was calculated. IC50 was determined using a non-linear dose–response regression curve as described above. The concentrations of complexes were compared by Two-way ANOVA followed by the Tukey test.

[2] = test system: L. (L.) amazonensis promastigote forms; test: In vitro antileishmanial activity on promastigote forms (MTT); type: cell-based, Leishmania (Leishmania) amazonensis; conditions: 72 h
[3] = test system: L. (L.) amazonensis promastigote forms; test: Flow cytometry for mitochondrial membrane potential (TMRE); type: cell-based, Leishmania (Leishmania) amazonensis; conditions: for reduction in TMRE labeling (ΔΨm): treatment at IC50, relative to nontreated parasites
NIH/3T3 fibroblasts = test: Cytotoxicity in mammalian cells (sulforhodamine B); type: cell-based; conditions: 48 h, read-out: Fibroblasts NIH/3T3 (Fib.) IC50
Method: The cytotoxic effect of compounds 1–7 was evaluated on NIH/3T3 fibroblasts obtained from the Rio de Janeiro Cell Bank (Duque de Caxias, Brazil). Fibroblasts were seeded at […] in 96-well plates. After 24 h of fixation, cells were incubated for 48 h with 1–7 at 2.5–250 µg·mL^−1, in three replicates. Cell growth was evaluated using the sulforhodamine B colorimetric method, and the optical with absorbances read on the PT-READER microplate instrument (Spectramax 190, Molecular Devices, Sunnyvale, CA, USA) at 540 nm. […] The growth inhibition percentage-GI (%) of each test sample was calculated in Microsoft Office Excel 2007 software. IC50 was determined graphically in the Microcal Origin Version 6.00 program. The selectivity index (SI) was calculated as the ratio between the cytotoxicity on cells (IC50) and the activity on the parasite forms (IC50).

[4] = test system: L. (L.) amazonensis promastigote forms; test: Flow cytometry for apoptosis and membrane permeability (PE Annexin V / 7-AAD); type: cell-based, Leishmania (Leishmania) amazonensis; conditions: for 7-AAD-stained parasites / An. (PE Annexin V-stained parasites) / An./7-AAD (double stained parasites) / Unst. (unstained parasites): treatment at IC50
Source text: PE Annexin V staining precedes the loss of membrane integrity observed in the final stages of cell death, resulting from either apoptotic or necrotic processes. PE Annexin V is used in conjunction with the vital dye 7-Amino-Actinomycin (7-AAD) to identify early apoptotic cells (7-AAD negative, PE Annexin V positive). Viable cells with intact membranes exclude 7-AAD, but the membranes of dead and damaged cells are permeable to 7-AAD. Cells that are in late apoptosis or already dead are both PE Annexin V and 7-AAD positive. […] Heat-killed parasites (60 °C bath/10 min) were used as positive control, and untreated parasites were used as negative control. Promastigotes were stained with 5 µL of PE Annexin V and 5 µL 7-AAD (PE Annexin V Apoptosis Detection Kit I, BD Biosciences^TM, Franklin Lakes, NJ, USA) and immediately subjected to flow cytometric analysis (BD FACSCanto^TM II). Then, 10,000 events were captured in the region previously determined to correspond to the parasites. Fluorescence was quantified and histograms were generated.

[5] = Leishmania amazonensis, Peritoneal macrophage, in Mus musculus
[6] = MTT, read-out: L. amazonensis Promastigotes (Pro.) IC50
[7] = 48 h after treatment at the calculated IC50
[8] = 72 h after treatment at the calculated IC50

Compound	IC50 [1]	IC50 [2, 6]	TMRE-labeled promastigotes [3, 7]	reduction in TMRE labeling (ΔΨm) ([3]; 72 h)	TMRE-labeled promastigotes [3, 8]	IC50 (NIH/3T3 fibroblasts)	7-AAD-stained parasites ([4]; 24 h)	An. (PE Annexin V-stained parasites) ([4]; 24 h)	An./7-AAD (double stained parasites) ([4]; 24 h)	Unst. (unstained parasites) ([4]; 24 h)	7-AAD-stained parasites ([4]; 48 h)	An. (PE Annexin V-stained parasites) ([4]; 48 h)	An./7-AAD (double stained parasites) ([4]; 48 h)	Unst. (unstained parasites) ([4]; 48 h)	7-AAD-stained parasites ([4]; 72 h)	An. (PE Annexin V-stained parasites) ([4]; 72 h)	An./7-AAD (double stained parasites) ([4]; 72 h)	Unst. (unstained parasites) ([4]; 72 h)	also measured
C[C@@H]1[C@H](O)[C@@H](C)/C=C/C=C/C=C/C=C/C=C/C=C/C=C/[C@H](O[C@@H]2O[C@H](C)[C@@H](O)[C@H](N)[C@@H]2O)C[C@@H]2O[C@](O)(C[C@@H](O)C[C@@H](O)[C@H](O)CC[C@@H](O)C[C@@H](O)CC(=O)O[C@H]1C)C[C@H](O)[C@H]2C(=O)O [Amphotericin B, reference compound]	–	–	–	–	–	–	–	–	–	–	–	–	–	–	–	–	–	–	IC50 [1, 5]: 198 nM; IC50 ([2]; Leishmania amazonensis, MTT, read-out: L. amazonensis Promastigotes (Pro.) IC50): 145 nM
CC(=O)C1=C([O-])C=C2Oc3c(C(C)=O)c(O)c(C)c(O)c3C2(C)C1=O.CC(=O)C1=C([O-])C=C2Oc3c(C(C)=O)c(O)c(C)c(O)c3C2(C)C1=O.CC(=O)C1=C([O-])C=C2Oc3c(C(C)=O)c(O)c(C)c(O)c3C2(C)C1=O.O.O.O.[Gd+3] (stereo not drawn) [GdL3·3H2O 3]	5520 nM	1500 nM	46.8%	24.5%	59.2%	26500 nM	0.4%	0.7%	0.6%	98.4%	12.7%	2.4%	6%	78.8%	3.2%	2.6%	7.4%	86.8%	reduction in TMRE labeling (ΔΨm) ([3]; 48 h): 36.2%; reduction in cell viability ([4]; 48 h after treatment at IC50): 17.4%
CC(=O)C1=C([O-])C=C2Oc3c(C(C)=O)c(O)c(C)c(O)c3C2(C)C1=O.CC(=O)C1=C([O-])C=C2Oc3c(C(C)=O)c(O)c(C)c(O)c3C2(C)C1=O.CC(=O)C1=C([O-])C=C2Oc3c(C(C)=O)c(O)c(C)c(O)c3C2(C)C1=O.O.O.O.[La+3] (stereo not drawn) [LaL3·3H2O 7]	4580 nM	1490 nM	76.0%	22.3%	82.0%	10900 nM	0.4%	0.7%	0.5%	98.3%	1.6%	1.8%	3.3%	93.3%	5.6%	2.4%	10.0%	82.0%	Intracellular amastigote activity, arbitrary scale ([1]; class by IC50): active
CC(=O)C1=C([O-])C=C2Oc3c(C(C)=O)c(O)c(C)c(O)c3C2(C)C1=O.CC(=O)C1=C([O-])C=C2Oc3c(C(C)=O)c(O)c(C)c(O)c3C2(C)C1=O.CC(=O)C1=C([O-])C=C2Oc3c(C(C)=O)c(O)c(C)c(O)c3C2(C)C1=O.O.O.O.[Nd+3] (stereo not drawn) [NdL3·3H2O 5]	2830 nM	910 nM	70.1%	11.35%	60.9%	19700 nM	0.3%	0.7%	0.5%	98.4%	1.6%	1.4%	3.3%	93.8%	7.7%	2.5%	10.0%	79.8%	–
N=C(N)c1ccc(OCCCCCOc2ccc(C(=N)N)cc2)cc1 [Pentamidine, reference compound]	–	1490 nM	–	–	–	–	–	–	–	–	–	–	–	–	–	–	–	–	IC50 [1, 5]: 920 nM; IC50 ([2]; Leishmania amazonensis, read-out: L. amazonensis Promastigotes (Pro.) IC50, 72 h, MTT): 1500 nM
CC(=O)C1=C([O-])C=C2Oc3c(C(C)=O)c(O)c(C)c(O)c3C2(C)C1=O.CC(=O)C1=C([O-])C=C2Oc3c(C(C)=O)c(O)c(C)c(O)c3C2(C)C1=O.CC(=O)C1=C([O-])C=C2Oc3c(C(C)=O)c(O)c(C)c(O)c3C2(C)C1=O.O.O.O.O.[Sm+3] (stereo not drawn) [SmL3·4H2O 2]	5230 nM	1260 nM	43.5%	41.7%	45.7%	20000 nM	10.2%	3.1%	5.5%	81.2%	2.8%	1.7%	3.4%	92.1%	4.0%	2.5%	7.6%	85.8%	reduction in TMRE labeling (ΔΨm) ([3]; 48 h): 40.7%; reduction in viability ([4]; 24 h after treatment at IC50): 17.2%
CC(=O)C1=C([O-])C=C2Oc3c(C(C)=O)c(O)c(C)c(O)c3C2(C)C1=O.CC(=O)C1=C([O-])C=C2Oc3c(C(C)=O)c(O)c(C)c(O)c3C2(C)C1=O.CC(=O)C1=C([O-])C=C2Oc3c(C(C)=O)c(O)c(C)c(O)c3C2(C)C1=O.O.O.[Tb+3] (stereo not drawn) [TbL3·2H2O 6]	7520 nM	2.3 nM	70.2%	–	69.5%	17500 nM	0.2%	0.8%	0.6%	98.3%	1.2%	1.3%	3.0%	94.5%	6.4%	2.6%	10.1%	80.9%	–
